Values joined by “and” are separate entries in the source; they are usually repeats but may differ in a detail not shown here. Equal values may be shown once.
Assay: molar heat capacity at constant pressure
Settings: 101.33 kPa, Crystal 1, Vacuum adiabatic calorimetry

[Al+3].[Al+3].[Co+2].[O-2].[O-2].[O-2].[O-2] [aluminium cobalt oxide]
Settings	molar heat capacity at constant pressure
146.83 K	57.16 J/K/mol
147.05 K	57.28 J/K/mol
149.96 K	58.88 J/K/mol
150 K	58.9 J/K/mol
150.67 K	59.3 J/K/mol
152.88 K	60.51 J/K/mol
154.53 K	61.45 J/K/mol
155.79 K	62.12 J/K/mol
158.38 K	63.57 J/K/mol
158.7 K	63.68 J/K/mol
160 K	64.37 J/K/mol
161.62 K	65.3 J/K/mol
162.25 K	65.67 J/K/mol
164.55 K	66.89 J/K/mol
166.11 K	67.74 J/K/mol
167.47 K	68.46 J/K/mol
169.98 K	69.8 J/K/mol
170 K	69.81 J/K/mol
170.39 K	70.02 J/K/mol
173.28 K	71.53 J/K/mol
173.86 K	71.81 J/K/mol
176.14 K	73.02 J/K/mol
177.74 K	73.82 J/K/mol
178.97 K	74.47 J/K/mol
180 K	74.99 J/K/mol
181.6 K	75.79 J/K/mol
181.77 K	75.91 J/K/mol
184.55 K	77.27 J/K/mol
185.41 K	77.67 J/K/mol
187.3 K	78.65 J/K/mol
189.19 K	79.56 J/K/mol
190 K	79.97 J/K/mol
190.03 K	79.99 J/K/mol
192.74 K	81.28 J/K/mol
192.91 K	81.34 J/K/mol
195.43 K	82.61 J/K/mol
196.6 K	83.11 J/K/mol
198.09 K	83.83 J/K/mol
200 K	84.73 J/K/mol
200.24 K	84.85 J/K/mol
200.74 K	85.08 J/K/mol
203.36 K	86.29 J/K/mol
203.85 K	86.5 J/K/mol
205.97 K	87.49 J/K/mol
207.42 K	88.12 J/K/mol
208.56 K	88.63 J/K/mol
210 K	89.28 J/K/mol
210.96 K	89.71 J/K/mol
211.13 K	89.82 J/K/mol
213.68 K	90.9 J/K/mol
214.47 K	91.27 J/K/mol
216.22 K	92.07 J/K/mol
217.95 K	92.81 J/K/mol
218.74 K	93.14 J/K/mol
220 K	93.68 J/K/mol
221.25 K	94.2 J/K/mol
221.4 K	94.18 J/K/mol
223.74 K	95.23 J/K/mol
224.82 K	95.65 J/K/mol
226.22 K	96.27 J/K/mol
228.21 K	97.04 J/K/mol
228.69 K	97.25 J/K/mol
230 K	97.8 J/K/mol
231.14 K	98.26 J/K/mol
231.58 K	98.37 J/K/mol
233.58 K	99.23 J/K/mol
234.92 K	99.71 J/K/mol
236.01 K	100.16 J/K/mol
238.24 K	101.02 J/K/mol
238.42 K	101.09 J/K/mol
240 K	101.73 J/K/mol
240.83 K	102.05 J/K/mol
241.54 K	102.25 J/K/mol
243.22 K	102.92 J/K/mol
244.81 K	103.49 J/K/mol
245.59 K	103.81 J/K/mol
247.96 K	104.73 J/K/mol
248.06 K	104.72 J/K/mol
250 K	105.45 J/K/mol
250.32 K	105.57 J/K/mol
251.29 K	105.92 J/K/mol
252.67 K	106.55 J/K/mol
254.51 K	106.81 J/K/mol
255.02 K	106.86 J/K/mol
257.35 K	107.86 J/K/mol
257.71 K	108 J/K/mol
259.68 K	108.69 J/K/mol
260 K	108.81 J/K/mol
260.89 K	109.14 J/K/mol
261.99 K	109.47 J/K/mol
264.06 K	110.17 J/K/mol
264.3 K	110.3 J/K/mol
266.6 K	111.11 J/K/mol
267.21 K	111.27 J/K/mol
268.89 K	111.88 J/K/mol
270 K	112.21 J/K/mol
270.34 K	112.32 J/K/mol
271.18 K	112.63 J/K/mol
273.45 K	113.32 J/K/mol and 113.36 J/K/mol
275.72 K	114.12 J/K/mol
276.55 K	114.32 J/K/mol
277.98 K	114.86 J/K/mol
279.64 K	115.3 J/K/mol
280 K	115.49 J/K/mol
280.23 K	115.61 J/K/mol
282.47 K	116.23 J/K/mol
282.71 K	116.25 J/K/mol
284.71 K	117.01 J/K/mol
285.76 K	117.27 J/K/mol
286.94 K	117.64 J/K/mol
288.8 K	118.11 J/K/mol
289.16 K	118.27 J/K/mol
290 K	118.56 J/K/mol
291.38 K	118.88 J/K/mol
291.83 K	118.87 J/K/mol
293.59 K	119.39 J/K/mol
294.84 K	119.71 J/K/mol
295.8 K	120.14 J/K/mol
297.85 K	120.6 J/K/mol
298 K	120.75 J/K/mol
298.15 K	120.8 J/K/mol
300 K	121.29 J/K/mol
300.19 K	121.32 J/K/mol
300.84 K	121.4 J/K/mol
302.38 K	121.76 J/K/mol
304.56 K	122.44 J/K/mol
306.74 K	123.1 J/K/mol
308.91 K	123.82 J/K/mol
310 K	124.03 J/K/mol
311.08 K	124.21 J/K/mol
314.58 K	125.39 J/K/mol
316.31 K	125.57 J/K/mol
318.27 K	126.1 J/K/mol
320 K	126.56 J/K/mol
320.27 K	126.63 J/K/mol
322.26 K	127.06 J/K/mol
324.24 K	127.71 J/K/mol
326.23 K	128.15 J/K/mol
328.22 K	128.71 J/K/mol
330 K	129.18 J/K/mol
330.21 K	129.23 J/K/mol
332.21 K	129.58 J/K/mol
334.2 K	130.14 J/K/mol
336.19 K	130.48 J/K/mol
338.18 K	131.04 J/K/mol
340 K	131.5 J/K/mol
340.18 K	131.54 J/K/mol
342.17 K	132 J/K/mol
344.16 K	132.51 J/K/mol
346.15 K	132.95 J/K/mol
348.15 K	133.41 J/K/mol
350 K	133.79 J/K/mol
350.14 K	133.82 J/K/mol
352.14 K	134.31 J/K/mol
354.14 K	134.84 J/K/mol
356.13 K	135.27 J/K/mol
358.13 K	135.71 J/K/mol
360 K	136.1 J/K/mol
360.13 K	136.12 J/K/mol
362.13 K	136.47 J/K/mol
364.13 K	136.92 J/K/mol
366.13 K	137.31 J/K/mol
368.13 K	137.72 J/K/mol
370 K	138.26 J/K/mol
370.14 K	138.29 J/K/mol
372.14 K	138.51 J/K/mol
374.14 K	138.93 J/K/mol
376.14 K	139.33 J/K/mol
378.15 K	139.67 J/K/mol
380 K	140.09 J/K/mol
380.15 K	140.12 J/K/mol
382.16 K	140.49 J/K/mol
384.17 K	140.86 J/K/mol
386.17 K	141.18 J/K/mol
388.18 K	141.53 J/K/mol
390 K	141.96 J/K/mol
390.19 K	142 J/K/mol
392.2 K	142.2 J/K/mol
394.22 K	142.53 J/K/mol
396.23 K	142.78 J/K/mol
398.24 K	143.19 J/K/mol
400.25 K	143.52 J/K/mol

Source: the NIST ThermoML archive (doi:10.1016/j.jct.2009.01.014)
